Measurements taken from ChEMBL document CHEMBL1938364, “Discovery of orally active pyrazoloquinolines as potent PDE10 inhibitors for the management of schizophrenia” (Bioorg Med Chem Lett, 2012).
pKi: −log10 of the molar value. Blank lines part the entries; values can stand above or below the compound they belong to. Calls of active or inactive are those of the source. The calls are words filed in the database; no cut-off is given here.

Key:
[1] = target: cAMP and cAMP-inhibited cGMP 3',5'-cyclic phosphodiesterase 10A (Homo sapiens, UniProt Q9Y233); experiment: Displacement of [3H]cAMP from human recombinant PDE10A1 by competitive binding assay
[2] = target: cGMP-specific 3',5'-cyclic phosphodiesterase (Homo sapiens, UniProt O76074); experiment: Displacement of [3H]cAMP from PDE5A1 by competitive binding assay
[3] = tested on: Rattus norvegicus; experiment: Antipsychotic activity in rat schizophrenia model assessed as inhibition of MK801-induced hyperactivity at 30 mg/kg, po; type: functional; set-up: scale not given: the % may be the effect or the level left
[4] = Displacement of [3H]cAMP from PDE6 by competitive binding assay
[5] = tested on: Rattus norvegicus; experiment: Antipsychotic activity in rat schizophrenia model assessed as inhibition of MK801-induced hyperactivity at 10 mg/kg, po; type: functional
[6] = tested on: Rattus norvegicus; experiment: Antipsychotic activity in rat schizophrenia model assessed as inhibition of MK801-induced hyperactivity at 3 mg/kg, po; type: functional
[7] = Clearance in human hepatocytes assessed per million cells; type: ADME, cell-based, Hepatocyte; settings: read-out: CLH
[8] = organism: Rattus norvegicus; experiment: Ratio of drug level in brain to plasma in rat after 6 hrs; type: ADME, organism-based
[9] = Protein binding in rat; type: ADME, organism-based; settings: plasma, read-out: PB (converted)
[10] = target: Cytochrome P450 2D6 (Homo sapiens, UniProt P10635); experiment: Inhibition of CYP2D6 up to 20 uM; type: ADME
[11] = tested on: Rattus norvegicus; experiment: Toxicity in orally dosed rat schizophrenia model assessed as induction of hypolocomotion; type: organism-based; settings: in vivo, po
[12] = tested on: Rattus norvegicus; experiment: Antipsychotic activity in orally dosed rat schizophrenia model assessed as inhibition of MK801-induced hyperactivity; type: functional; settings: po, read-out: MED
[13] = target: Cytochrome P450 2C9 (Homo sapiens, UniProt P11712); experiment: Inhibition of CYP2C9 up to 20 uM; type: ADME
[14] = target: hERG (KCNH2) (Homo sapiens, UniProt Q12809); experiment: Inhibition of human ERG at 10 uM
[15] = Clearance in rat hepatocytes assessed per million cells; type: ADME, cell-based, Hepatocyte; settings: read-out: CLH
[16] = Clearance in monkey hepatocytes assessed per million cells; type: ADME, cell-based, Macaca mulatta, Hepatocyte; settings: rhesus monkey, read-out: CLH
[17] = Drug level in rat brain after 6 hrs; type: ADME, organism-based; settings: read-out: Ct
[18] = target: Cytochrome P450 3A4 (Homo sapiens, UniProt P08684); experiment: Inhibition of CYP3A4 up to 20 uM; type: ADME
[19] = target: Dual specificity calcium/calmodulin-dependent 3',5'-cyclic nucleotide phosphodiesterase 1A (Homo sapiens, UniProt P54750); experiment: Displacement of [3H]cAMP from PDE1A3 by competitive binding assay
[20] = target: cGMP-dependent 3',5'-cyclic phosphodiesterase (Homo sapiens, UniProt O00408); experiment: Displacement of [3H]cAMP from PDE2A by competitive binding assay
[21] = target: cGMP-inhibited 3',5'-cyclic phosphodiesterase 3A (Homo sapiens, UniProt Q14432); experiment: Displacement of [3H]cAMP from PDE3A by competitive binding assay
[22] = target: High affinity cAMP-specific and IBMX-insensitive 3',5'-cyclic phosphodiesterase 8A (Homo sapiens, UniProt O60658); experiment: Displacement of [3H]cAMP from PDE8A1 by competitive binding assay
[23] = target: 3',5'-cyclic-AMP phosphodiesterase 4B (Homo sapiens, UniProt Q07343); experiment: Displacement of [3H]cAMP from PDE4B2 by competitive binding assay
[24] = target: High affinity cGMP-specific 3',5'-cyclic phosphodiesterase 9A (Homo sapiens, UniProt O76083); experiment: Displacement of [3H]cAMP from PDE9A1 by competitive binding assay
[25] = target: High affinity 3',5'-cyclic-AMP phosphodiesterase 7A (Homo sapiens, UniProt Q13946); experiment: Displacement of [3H]cAMP from PDE7A1 by competitive binding assay

cAMP and cAMP-inhibited cGMP 3',5'-cyclic phosphodiesterase 10A, sequence (Q9Y233 whole entry): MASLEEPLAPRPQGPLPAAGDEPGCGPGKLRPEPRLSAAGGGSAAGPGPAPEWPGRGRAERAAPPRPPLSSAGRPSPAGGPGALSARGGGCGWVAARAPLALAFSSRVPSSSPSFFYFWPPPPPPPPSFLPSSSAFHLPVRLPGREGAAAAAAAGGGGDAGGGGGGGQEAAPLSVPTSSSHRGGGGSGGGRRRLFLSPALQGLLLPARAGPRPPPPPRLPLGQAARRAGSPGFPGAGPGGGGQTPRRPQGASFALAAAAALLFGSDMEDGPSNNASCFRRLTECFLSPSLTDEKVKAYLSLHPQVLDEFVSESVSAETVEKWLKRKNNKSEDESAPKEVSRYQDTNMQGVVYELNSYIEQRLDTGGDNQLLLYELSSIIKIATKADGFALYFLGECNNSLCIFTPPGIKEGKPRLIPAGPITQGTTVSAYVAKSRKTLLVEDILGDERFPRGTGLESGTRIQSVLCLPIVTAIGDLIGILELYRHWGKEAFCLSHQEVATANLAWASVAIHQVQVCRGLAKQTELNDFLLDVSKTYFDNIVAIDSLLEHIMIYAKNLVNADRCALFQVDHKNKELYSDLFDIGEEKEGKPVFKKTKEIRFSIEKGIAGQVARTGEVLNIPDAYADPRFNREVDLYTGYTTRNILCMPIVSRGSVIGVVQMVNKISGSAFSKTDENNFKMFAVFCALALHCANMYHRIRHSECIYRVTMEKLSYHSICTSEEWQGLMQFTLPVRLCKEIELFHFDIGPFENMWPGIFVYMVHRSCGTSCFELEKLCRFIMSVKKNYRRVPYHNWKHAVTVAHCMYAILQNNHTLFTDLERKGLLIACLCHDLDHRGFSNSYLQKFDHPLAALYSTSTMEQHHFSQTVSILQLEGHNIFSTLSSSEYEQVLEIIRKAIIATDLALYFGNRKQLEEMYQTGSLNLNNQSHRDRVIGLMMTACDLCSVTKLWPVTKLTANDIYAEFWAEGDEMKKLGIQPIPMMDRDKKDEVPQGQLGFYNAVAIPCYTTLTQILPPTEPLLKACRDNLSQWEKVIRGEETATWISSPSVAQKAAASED
High affinity cGMP-specific 3',5'-cyclic phosphodiesterase 9A, sequence (O76083 whole entry): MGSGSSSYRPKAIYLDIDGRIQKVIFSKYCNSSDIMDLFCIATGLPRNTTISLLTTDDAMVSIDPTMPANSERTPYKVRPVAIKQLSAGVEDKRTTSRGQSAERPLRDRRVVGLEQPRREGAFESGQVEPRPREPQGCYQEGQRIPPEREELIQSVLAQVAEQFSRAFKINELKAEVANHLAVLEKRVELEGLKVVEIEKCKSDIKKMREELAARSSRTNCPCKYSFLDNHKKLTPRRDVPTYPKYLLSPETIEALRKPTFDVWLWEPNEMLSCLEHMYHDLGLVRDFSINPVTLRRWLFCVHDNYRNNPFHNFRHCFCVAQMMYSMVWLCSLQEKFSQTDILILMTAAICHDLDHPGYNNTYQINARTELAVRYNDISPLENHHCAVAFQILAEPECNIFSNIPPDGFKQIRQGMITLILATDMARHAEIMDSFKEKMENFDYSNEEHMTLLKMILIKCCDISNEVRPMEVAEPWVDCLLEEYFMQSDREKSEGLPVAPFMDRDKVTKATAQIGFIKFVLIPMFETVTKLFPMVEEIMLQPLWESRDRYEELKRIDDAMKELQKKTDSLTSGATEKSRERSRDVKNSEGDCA
Dual specificity calcium/calmodulin-dependent 3',5'-cyclic nucleotide phosphodiesterase 1A, sequence (P54750 whole entry): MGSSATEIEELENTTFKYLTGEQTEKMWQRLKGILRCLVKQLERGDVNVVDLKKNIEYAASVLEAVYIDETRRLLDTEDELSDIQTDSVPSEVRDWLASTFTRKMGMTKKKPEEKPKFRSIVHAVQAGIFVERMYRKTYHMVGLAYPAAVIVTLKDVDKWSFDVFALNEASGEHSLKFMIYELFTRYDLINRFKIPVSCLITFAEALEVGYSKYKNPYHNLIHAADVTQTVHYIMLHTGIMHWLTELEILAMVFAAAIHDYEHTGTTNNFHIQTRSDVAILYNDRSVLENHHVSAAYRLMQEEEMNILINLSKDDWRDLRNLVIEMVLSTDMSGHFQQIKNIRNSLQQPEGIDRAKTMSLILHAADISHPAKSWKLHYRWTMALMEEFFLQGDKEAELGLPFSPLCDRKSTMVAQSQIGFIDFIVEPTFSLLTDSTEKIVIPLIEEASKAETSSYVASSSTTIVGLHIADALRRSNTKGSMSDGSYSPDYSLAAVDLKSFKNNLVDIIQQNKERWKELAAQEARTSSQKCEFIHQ
Cytochrome P450 2C9, sequence (P11712 whole entry): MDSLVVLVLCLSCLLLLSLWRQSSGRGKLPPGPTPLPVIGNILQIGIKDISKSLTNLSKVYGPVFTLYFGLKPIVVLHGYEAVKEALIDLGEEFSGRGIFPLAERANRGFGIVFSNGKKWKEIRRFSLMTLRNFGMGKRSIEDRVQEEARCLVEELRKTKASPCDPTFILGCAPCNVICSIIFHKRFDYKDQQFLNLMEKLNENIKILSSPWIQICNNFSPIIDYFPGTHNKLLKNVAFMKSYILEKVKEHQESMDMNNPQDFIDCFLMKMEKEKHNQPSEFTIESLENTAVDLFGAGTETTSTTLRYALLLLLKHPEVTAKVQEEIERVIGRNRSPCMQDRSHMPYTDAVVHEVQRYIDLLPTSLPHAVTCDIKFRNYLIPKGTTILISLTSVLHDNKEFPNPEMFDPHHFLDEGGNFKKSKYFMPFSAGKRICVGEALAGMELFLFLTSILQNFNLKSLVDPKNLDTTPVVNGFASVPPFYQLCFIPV
cGMP-dependent 3',5'-cyclic phosphodiesterase, sequence (O00408 whole entry): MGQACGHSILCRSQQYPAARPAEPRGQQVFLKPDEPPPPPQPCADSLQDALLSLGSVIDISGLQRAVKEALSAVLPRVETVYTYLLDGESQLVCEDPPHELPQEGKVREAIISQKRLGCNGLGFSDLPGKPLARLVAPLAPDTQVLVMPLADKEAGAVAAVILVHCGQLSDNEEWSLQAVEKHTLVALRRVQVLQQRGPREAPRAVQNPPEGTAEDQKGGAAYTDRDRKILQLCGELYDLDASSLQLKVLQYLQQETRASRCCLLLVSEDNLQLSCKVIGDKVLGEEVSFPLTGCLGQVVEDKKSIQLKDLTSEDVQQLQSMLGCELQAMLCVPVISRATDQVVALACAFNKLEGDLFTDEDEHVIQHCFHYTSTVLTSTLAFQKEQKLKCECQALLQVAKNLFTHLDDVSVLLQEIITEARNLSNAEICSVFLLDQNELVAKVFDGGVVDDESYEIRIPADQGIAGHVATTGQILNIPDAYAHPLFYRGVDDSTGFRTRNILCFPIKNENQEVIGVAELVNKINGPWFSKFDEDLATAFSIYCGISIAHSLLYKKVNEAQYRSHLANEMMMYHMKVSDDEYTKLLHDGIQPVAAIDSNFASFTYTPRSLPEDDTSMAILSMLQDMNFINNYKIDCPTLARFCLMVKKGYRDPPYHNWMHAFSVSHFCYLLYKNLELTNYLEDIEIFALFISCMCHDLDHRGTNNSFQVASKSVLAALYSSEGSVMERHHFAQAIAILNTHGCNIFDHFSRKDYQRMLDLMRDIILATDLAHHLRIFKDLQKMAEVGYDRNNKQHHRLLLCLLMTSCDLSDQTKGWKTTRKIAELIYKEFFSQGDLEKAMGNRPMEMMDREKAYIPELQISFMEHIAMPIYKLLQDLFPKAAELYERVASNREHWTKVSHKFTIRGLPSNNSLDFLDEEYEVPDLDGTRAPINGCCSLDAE
High affinity cAMP-specific and IBMX-insensitive 3',5'-cyclic phosphodiesterase 8A, sequence (O60658 whole entry): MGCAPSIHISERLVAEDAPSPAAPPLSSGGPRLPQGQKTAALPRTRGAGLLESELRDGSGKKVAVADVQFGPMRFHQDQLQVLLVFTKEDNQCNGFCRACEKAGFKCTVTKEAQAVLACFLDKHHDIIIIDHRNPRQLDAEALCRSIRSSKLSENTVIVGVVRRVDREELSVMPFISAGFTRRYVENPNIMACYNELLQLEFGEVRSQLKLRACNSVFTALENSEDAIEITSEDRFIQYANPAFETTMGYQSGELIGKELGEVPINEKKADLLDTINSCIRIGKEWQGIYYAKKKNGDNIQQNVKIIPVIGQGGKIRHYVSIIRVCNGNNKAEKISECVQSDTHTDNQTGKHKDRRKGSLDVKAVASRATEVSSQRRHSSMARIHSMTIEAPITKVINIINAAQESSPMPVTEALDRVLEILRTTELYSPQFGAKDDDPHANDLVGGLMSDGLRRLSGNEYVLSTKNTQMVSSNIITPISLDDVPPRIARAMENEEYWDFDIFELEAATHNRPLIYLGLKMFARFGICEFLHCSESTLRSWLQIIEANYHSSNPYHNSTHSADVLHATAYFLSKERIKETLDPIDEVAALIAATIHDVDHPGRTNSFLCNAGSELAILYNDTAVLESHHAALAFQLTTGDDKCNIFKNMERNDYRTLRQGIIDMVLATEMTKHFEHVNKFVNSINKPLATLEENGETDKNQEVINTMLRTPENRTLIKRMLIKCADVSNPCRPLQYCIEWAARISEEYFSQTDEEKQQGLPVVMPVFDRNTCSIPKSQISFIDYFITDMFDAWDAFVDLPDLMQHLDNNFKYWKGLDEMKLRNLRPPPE
Cytochrome P450 2D6, sequence (P10635 whole entry): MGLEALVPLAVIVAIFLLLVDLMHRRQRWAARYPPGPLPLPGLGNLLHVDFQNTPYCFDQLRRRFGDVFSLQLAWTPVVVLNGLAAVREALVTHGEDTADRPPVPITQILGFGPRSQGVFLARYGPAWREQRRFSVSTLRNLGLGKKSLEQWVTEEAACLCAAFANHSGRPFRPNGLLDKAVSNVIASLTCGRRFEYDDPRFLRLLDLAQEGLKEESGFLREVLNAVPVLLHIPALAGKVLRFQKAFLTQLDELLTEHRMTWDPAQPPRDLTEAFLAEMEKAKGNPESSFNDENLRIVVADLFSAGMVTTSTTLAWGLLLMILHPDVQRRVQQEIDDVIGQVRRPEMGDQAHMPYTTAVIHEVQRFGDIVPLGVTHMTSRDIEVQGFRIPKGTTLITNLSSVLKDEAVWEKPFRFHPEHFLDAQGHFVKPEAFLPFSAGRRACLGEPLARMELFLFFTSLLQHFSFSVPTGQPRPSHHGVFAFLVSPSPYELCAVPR

Structure (SMILES): COc1cc(C)c2nc3[nH]nc(C)c3c(CN3CCOC(CO)C3)c2c1 (stereo not drawn)
pKi [1]: 9.22
pKi [2]: 5.30
Activity [3]: 104%
pKi [4]: 6.52
Activity [5]: inactive
Activity [6]: inactive

Structure (SMILES): COc1cc(C)c2nc3[nH]nc(C)c3c(CN3CC4CC3CO4)c2c1 (stereo not drawn)
pKi [1]: 7.34

Structure (SMILES): Cc1cc(Cl)cc2c(CN3CC4CC3CO4)c3c(C)n[nH]c3nc12 (stereo not drawn)
pKi [1]: 7.22

Structure (SMILES): COc1cc(C)c2nc3[nH]nc(C)c3c(CN3CCN[C@H](C)C3)c2c1
pKi [1]: 7.52
Activity [3]: inactive

Structure (SMILES): COc1cc(C)c2nc3[nH]nc(C)c3c(CN3CCC(F)CC3)c2c1
pKi [1]: 6.69

Structure (SMILES): COc1cc(C)c2nc3[nH]nc(C)c3c(CN3CCNCC3)c2c1
pKi [1]: 7.31
Activity [3]: inactive

Structure (SMILES): COc1cc(C)c2nc3[nH]nc(C)c3c(CN3CCC(CO)C3)c2c1 (stereo not drawn)
pKi [1]: 7.49
Activity [3]: 38%
Activity [5]: inactive
Activity [6]: inactive

Structure (SMILES): COc1cc(C)c2nc3[nH]nc(C)c3c(CN3CCCC(C(F)(F)F)C3)c2c1 (stereo not drawn)
pKi [1]: 6.45

Structure (SMILES): COc1cc(C)c2nc3[nH]nc(C)c3c(CN3CC[C@@H](O)C3)c2c1
pKi [1]: 8.52
pKi [2]: 5.19
Activity [3]: 102%
pKi [4]: 5.33
Activity [5]: inactive
Activity [6]: inactive

Structure (SMILES): COc1cc(C)c2nc3[nH]nc(C)c3c(CN3CCOCC3)c2c1
pKi [2]: 4.97
Activity [3]: 109%
pKi [4]: 5.70
Activity [5]: 131%
Activity [6]: inactive

Structure (SMILES): COc1cc(C)c2nc3[nH]nc(C)c3c(CN3C4CCC3CC4)c2c1
pKi [1]: 5.92

Structure (SMILES): COc1cc(C)c2nc3[nH]nc(C)c3c(CN3CCCCC3)c2c1
pKi [1]: 6.09

Structure (SMILES): COc1cc(C)c2nc3[nH]nc(C)c3c(CN3CCOC(C)(C)C3)c2c1
pKi [1]: 6.77

Structure (SMILES): COCCOc1cc(C)c2nc3[nH]nc(C)c3c(CN3CCCOCC3)c2c1
pKi [1]: 9.00
pKi [19]: < 5.00
pKi [2]: 4.61
pKi [20]: < 5.00
pKi [21]: < 5.00
pKi [22]: < 5.00
pKi [23]: < 5.00
pKi [24]: < 5.00
pKi [25]: < 5.00
pKi [4]: 5.23

Structure (SMILES): COc1ccc2nc3[nH]nc(C)c3c(CN3CCCOCC3)c2c1
pKi [1]: 6.82

Structure (SMILES): COc1cc(C)c2nc3[nH]nc(C)c3c(CN3CCCC3)c2c1
pKi [1]: 7.62
minimal effective dose [12]: 1 mg/kg
Activity [3]: 122%
Activity [5]: 107%
Activity [6]: 96%

Structure (SMILES): COc1cc(C)c2nc3[nH]nc(C)c3c(CN3CCOC(C)C3)c2c1 (stereo not drawn)
pKi [1]: 8.52
pKi [2]: 5.05
Activity [3]: 130%
pKi [4]: 5.08
Activity [5]: 88%
Activity [6]: inactive

Structure (SMILES): Cc1cc(Cl)cc2c(CN3C4CCC3CC4)c3c(C)n[nH]c3nc12
pKi [1]: 6.64

More lines, main results first:

pKi [1]: 7.72
Structure (SMILES): Cc1cc(OC(F)(F)F)cc2c(CN3CCCOCC3)c3c(C)n[nH]c3nc12

pKi [1]: 7.59
Structure (SMILES): COc1cc(C)c2nc3[nH]nc(C)c3c(CN3C[C@@H](C)O[C@@H](C)C3)c2c1

pKi [1]: 7.39
Structure (SMILES): Cc1cc(Cl)cc2c(CN3CCCOCC3)c3c(C)n[nH]c3nc12
Activity [3]: 87%
Activity [5]: inactive
Activity [6]: inactive

pKi [1]: 7.85
Structure (SMILES): COc1cc(OC)c2nc3[nH]nc(C)c3c(CN3CCCOCC3)c2c1

hepatocyte CLint [7]: 8.3 µL/min/1e6 cells
BPR [8]: 1.56
fraction unbound [9]: 0.03
inhibition (INH) [10]: Not Active
pKi [2]: 5.01
inhibition (INH) [13]: Not Active
pKi [4]: 5.68
hepatocyte CLint [15]: < 1 µL/min/1e6 cells
hepatocyte CLint [16]: 6 µL/min/1e6 cells
concentration at 6 h [17]: 42 ng/g
inhibition (INH) [18]: Not Active
Structure (SMILES): COc1cc(C)c2nc3[nH]nc(C)c3c(CN3CCCOCC3)c2c1
MED [11]: 30 mg/kg
minimal effective dose [12]: 3 mg/kg
Activity [3]: 103%
inhibition at 10 µM [14]: 5.3%
Activity [5]: 120%
Activity [6]: 66%

pKi [1]: 6.58
Structure (SMILES): COc1cc(C)c2nc3[nH]nc(C)c3c(CN3[C@@H]4CC[C@H]3C[C@@H](O)C4)c2c1

pKi [1]: 8.70
pKi [2]: 4.68
pKi [4]: 5.62
Structure (SMILES): Cc1cc(O)cc2c(CN3CCCOCC3)c3c(C)n[nH]c3nc12

pKi [1]: 8.05
Structure (SMILES): COc1cc(C)c2nc3[nH]nc(C)c3c(CN3CCNC(=O)C3)c2c1
Activity [3]: inactive

pKi [1]: 8.10
Structure (SMILES): Cc1cc(OC(C)C)cc2c(CN3CCCOCC3)c3c(C)n[nH]c3nc12

pKi [1]: 7.43
Structure (SMILES): Cc1n[nH]c2nc3c(OC(F)(F)F)cc(Br)cc3c(CN3CCCOCC3)c12

pKi [1]: 6.98
Structure (SMILES): Cc1n[nH]c2nc3ccc(C(F)(F)F)cc3c(CN3CCCOCC3)c12

pKi [1]: 7.24
Structure (SMILES): COc1cc(C)c2nc3[nH]nc(C)c3c(CN3CCC(O)CC3)c2c1
Activity [3]: 136%
Activity [5]: inactive
Activity [6]: inactive

pKi [1]: 6.06
Structure (SMILES): COc1cc(C)c2nc3[nH]nc(C)c3c(CN3CCC(C(F)(F)F)CC3)c2c1
